# System: THP-1 cells
# Experiment: RealTime-Glo MT Cell Viability assay on THP-1 cells
# Format: cell-based, human
# Conditions: 1 μM, 48 hours
# Protocol: (§1) Cell viability was evaluated on THP-1 cells using realtime-Glo” MT Cell Viability Assay (Promega Italia, MI). Briefly, the cells were seeded in a 96 multiwell (10×10^4 cells/well), treated with the selected compound of Formula (II), and incubated for 48 hours. After treatment, the cells were incubated for 10 minutes in the incubator with the realtime-Glo” reagent following protocol. The luminescence was measured every 12 hours in the Glomax Multi Detection System Promega. The luminescence signal correlates with the number of metabolically active cells.
# as §1, with “compound,” for “compound of Formula (II),”, “cells. The results represent the mean luminescence values (RLU)±SEM.” for “cells.”
row,Compound,Cytotoxicity / cell viability of THP-1 cells
1,"CC(C)[C@H](NS(=O)(=O)c1ccc([N+](=O)[O-])cc1)C(=O)Nc1c2c(cc3c1CCC3)CCC2 [Compound 6c of Formula (III), (S)—N-(1,2,3,5,6,7-hexahydro-s-indacen-4-yl)-3-methyl-2-((4-nitrophenyl)sulfonamido)butanamide]",no cytotoxicity
2,"Nc1ccc(S(=O)(=O)N[C@@H](Cc2ccc(O)cc2)C(=O)Nc2c3c(cc4c2CCC4)CCC3)cc1 [Compound 10 of Formula (III), (S)-2-((4-aminophenyl)sulfonamido)-N-(1,2,3,5,6,7-hexahydro-s-indacen-4-yl)-3-(4-hydroxyphenyl)propanamide]",no cytotoxicity

# Biological target: T1, NLRP3 inflammasome (Mus musculus, UniProt Q8R4B8)
# T1 construct: bone marrow-derived macrophages (BMDMs) from wild type (WT) mice first primed with 1 μg/ml lipopolysaccharide (LPS); endogenous in cells; host or cells: primary BMDMs from wild type mice
# Experiment: Inhibition of NLRP3-mediated IL-1β release in BMDMs (LPS + Bz-ATP), ELISA
# Format: cell-based
# Conditions: BMDM; BMDMs from WT mice, LPS + BzATP, compound at 1 μM; read-out: Inhibitory rate of IL-1β release
# T1 sequence (Q8R4B8 whole entry): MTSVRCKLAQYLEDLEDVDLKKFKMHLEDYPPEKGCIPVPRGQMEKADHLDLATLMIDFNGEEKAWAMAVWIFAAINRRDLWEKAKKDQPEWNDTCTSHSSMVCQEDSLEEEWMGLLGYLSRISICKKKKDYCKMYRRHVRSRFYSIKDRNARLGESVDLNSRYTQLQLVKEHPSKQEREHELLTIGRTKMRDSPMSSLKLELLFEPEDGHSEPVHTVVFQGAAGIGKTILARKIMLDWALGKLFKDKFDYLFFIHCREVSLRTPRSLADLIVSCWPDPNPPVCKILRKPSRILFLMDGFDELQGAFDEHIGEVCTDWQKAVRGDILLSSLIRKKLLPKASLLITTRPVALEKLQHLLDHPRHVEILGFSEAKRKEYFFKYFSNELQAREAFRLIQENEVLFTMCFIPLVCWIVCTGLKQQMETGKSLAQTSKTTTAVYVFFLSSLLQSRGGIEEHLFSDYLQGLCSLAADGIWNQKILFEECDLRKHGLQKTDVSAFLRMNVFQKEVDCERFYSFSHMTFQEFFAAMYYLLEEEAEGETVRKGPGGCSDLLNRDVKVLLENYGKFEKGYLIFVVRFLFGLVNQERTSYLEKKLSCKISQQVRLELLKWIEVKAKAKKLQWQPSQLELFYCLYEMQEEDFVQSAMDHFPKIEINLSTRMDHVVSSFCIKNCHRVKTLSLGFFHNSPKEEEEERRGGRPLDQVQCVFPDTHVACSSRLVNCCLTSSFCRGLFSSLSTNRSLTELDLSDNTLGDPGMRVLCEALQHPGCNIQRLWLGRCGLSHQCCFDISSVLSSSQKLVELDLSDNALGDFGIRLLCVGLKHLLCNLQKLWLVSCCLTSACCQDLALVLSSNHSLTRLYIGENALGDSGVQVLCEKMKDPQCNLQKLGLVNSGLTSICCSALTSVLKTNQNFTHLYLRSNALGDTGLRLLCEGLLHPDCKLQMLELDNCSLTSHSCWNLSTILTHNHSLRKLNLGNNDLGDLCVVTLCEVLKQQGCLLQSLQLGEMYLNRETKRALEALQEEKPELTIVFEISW
row,Compound,inhibition at 1 µM [%]
1,"O=C(Nc1c2c(cc3c1CCC3)CCC2)[C@H](Cc1ccccc1)NS(=O)(=O)c1ccc([N+](=O)[O-])cc1 [Compound 6g of Formula (III), (S)—N-(1,2,3,5,6,7-hexahydro-s-indacen-4-yl)-2-((4-nitrophenyl)sulfonamido)-3-phenylpropanamide]",19.8
2,"O=C(Nc1c2c(cc3c1CCC3)CCC2)[C@H](Cc1ccc(O)cc1)NS(=O)(=O)c1ccc([N+](=O)[O-])cc1 [Compound 8 of Formula (III), (S)—N-(1,2,3,5,6,7-hexahydro-s-indacen-4-yl)-3-(4-hydroxyphenyl)-2-((4-nitrophenyl)sulfonamido)propanamide]",34.7
3,"O=C(CCNS(=O)(=O)c1ccc([N+](=O)[O-])cc1)Nc1c2c(cc3c1CCC3)CCC2 [Compound 6k of Formula (III), N-(1,2,3,5,6,7-hexahydro-s-indacen-4-yl)-3-((4-nitrophenyl)sulfonamido)propanamide]",36.5
4,"Nc1ccc(S(=O)(=O)N2CCCC2C(=O)Nc2c3c(cc4c2CCC4)CCC3)cc1 (stereo not drawn) [Compound 4a of Formula (IV), 1-((4-aminophenyl)sulfonyl)-N-(1,2,3,5,6,7-hexahydro-s-indacen-4-yl)pyrrolidine-2-carboxamide]",41.6
5,"Nc1ccc(S(=O)(=O)N[C@@H](Cc2ccccc2)C(=O)Nc2c3c(cc4c2CCC4)CCC3)cc1 [Compound 7g of Formula (III), (S)-2-((4-aminophenyl)sulfonamido)-N-(1,2,3,5,6,7-hexahydro-s-indacen-4-yl)-3-phenylpropanamide]",38
6,"O=C(Nc1c2c(cc3c1CCC3)CCC2)[C@@H](Cc1ccccc1)NS(=O)(=O)c1ccc([N+](=O)[O-])cc1 [Compound 6h of Formula (III), (R)—N-(1,2,3,5,6,7-hexahydro-s-indacen-4-yl)-2-((4-nitrophenyl)sulfonamido)-3-phenylpropanamide]",49.5
7,"NCCCC[C@H](NS(=O)(=O)c1ccc([N+](=O)[O-])cc1)C(=O)Nc1c2c(cc3c1CCC3)CCC2 [Compound 9 of Formula (III), (S)-6-amino-N-(1,2,3,5,6,7-hexahydro-s-indacen-4-yl)-2-((4-nitrophenyl)sulfonamido)hexanamide]",47.5
8,"Nc1ccc(S(=O)(=O)N2CCCCC2C(=O)Nc2c3c(cc4c2CCC4)CCC3)cc1 (stereo not drawn) [Compound 4b of Formula (IV), 1-((4-aminophenyl)sulfonyl)-N-(1,2,3,5,6,7-hexahydro-s-indacen-4-yl)piperidine-2-carboxamide]",25.4
9,"O=C(Nc1c2c(cc3c1CCC3)CCC2)C1CCCCN1S(=O)(=O)c1ccc([N+](=O)[O-])cc1 (stereo not drawn) [Compound 3b of Formula (IV), N-(1,2,3,5,6,7-hexahydro-s-indacen-4-yl)-1-((4-nitrophenyl)sulfonyl)piperidine-2-carboxamide]",52.4
10,"Nc1ccc(S(=O)(=O)N[C@H](Cc2ccccc2)C(=O)Nc2c3c(cc4c2CCC4)CCC3)cc1 [Compound 7h of Formula (III), (R)-2-((4-aminophenyl)sulfonamido)-N-(1,2,3,5,6,7-hexahydro-s-indacen-4-yl)-3-phenylpropanamide]",46.4
11,"O=C(Nc1c2c(cc3c1CCC3)CCC2)[C@@H](NS(=O)(=O)c1ccc([N+](=O)[O-])cc1)c1ccccc1 [Compound 6f of Formula (III), (S)—N-(1,2,3,5,6,7-hexahydro-s-indacen-4-yl)-2-((4-nitrophenyl)sulfonamido)-2-phenylacetamide]",44.8
12,"O=C(Nc1c2c(cc3c1CCC3)CCC2)C1CCCN1S(=O)(=O)c1ccc([N+](=O)[O-])cc1 (stereo not drawn) [Compound 3a of Formula (IV), N-(1,2,3,5,6,7-hexahydro-s-indacen-4-yl)-1-((4-nitrophenyl)sulfonyl)pyrrolidine-2-carboxamide]",25.7

# Second part, the molecule after the results:
row,inhibition at 1 µM [%],Compound
1,28.4,"NCCCC[C@H](NS(=O)(=O)c1ccc(N)cc1)C(=O)Nc1c2c(cc3c1CCC3)CCC2 [Compound 11 of Formula (III), (S)-6-amino-2-((4-aminophenyl)sulfonamido)-N-(1,2,3,5,6,7-hexahydro-s-indacen-4-yl)hexanamide]"
2,17.3,"C[C@H](NS(=O)(=O)c1ccc(N)cc1)C(=O)Nc1c2c(cc3c1CCC3)CCC2 [Compound 7b of Formula (III), (S)-2-((4-aminophenyl)sulfonamido)-N-(1,2,3,5,6,7-hexahydro-s-indacen-4-yl)propanamide]"
3,50.2,"CC(C)[C@H](NS(=O)(=O)c1ccc(N)cc1)C(=O)Nc1c2c(cc3c1CCC3)CCC2 [Compound 7c of Formula (III), (S)-2-((4-aminophenyl)sulfonamido)-N-(1,2,3,5,6,7-hexahydro-s-indacen-4-yl)-3-methylbutanamide]"
4,53.9,"CC(C)C[C@H](NS(=O)(=O)c1ccc([N+](=O)[O-])cc1)C(=O)Nc1c2c(cc3c1CCC3)CCC2 [Compound 6e of Formula (III), (S)—N-(1,2,3,5,6,7-hexahydro-s-indacen-4-yl)-4-methyl-2-((4-nitrophenyl)sulfonamido)pentanamide]"
5,16.1,"Nc1ccc(S(=O)(=O)N[C@H](C(=O)Nc2c3c(cc4c2CCC4)CCC3)c2ccccc2)cc1 [Compound 7f of Formula (III), (S)-2-((4-aminophenyl)sulfonamido)-N-(1,2,3,5,6,7-hexahydro-s-indacen-4-yl)-2-phenylacetamide]"
6,8.4,"CC(C)[C@@H](NS(=O)(=O)c1ccc(N)cc1)C(=O)Nc1c2c(cc3c1CCC3)CCC2 [Compound 7d of Formula (III), (R)-2-((4-aminophenyl)sulfonamido)-N-(1,2,3,5,6,7-hexahydro-s-indacen-4-yl)-3-methylbutanamide]"
7,22.3,"Nc1ccc(S(=O)(=O)NCCC(=O)Nc2c3c(cc4c2CCC4)CCC3)cc1 [Compound 7k of Formula (III), 3-((4-aminophenyl)sulfonamido)-N-(1,2,3,5,6,7-hexahydro-s-indacen-4-yl)propanamide]"
8,31.5,"CC(C)C[C@H](NS(=O)(=O)c1ccc(N)cc1)C(=O)Nc1c2c(cc3c1CCC3)CCC2 [Compound 7e of Formula (III), (S)-2-((4-aminophenyl)sulfonamido)-N-(1,2,3,5,6,7-hexahydro-s-indacen-4-yl)-4-methylpentanamide]"

# Biological target: T2, NLRC4 inflammasome (Mus musculus, UniProt Q3UP24)
# T2 construct: endogenous in cells; host or cells: mouse BMDM, LPS-primed, transfected with S. typhimurium flagellin
# Experiment: NLRC4 inflammasome activation in LPS-primed BMDM transfected with flagellin of S. typhimurium (IL-1β ELISA)
# Format: cell-based
# Conditions: LPS 100 ng/ml 3 hours, compound 1 μm 30 minutes, flagellin 100 ng/ml 2 hours
# Protocol: The selectivity of compound 4 as an inhibitor of NLRP3 was then evaluated with respect to NLRC4 and absent in melanoma 2 (AIM2) inflammasomes. For activation of NLRC4 inflammasome, BMDM were treated with LPS (100 ng/ml) for 3 hours. Subsequently, the culture medium was removed and replaced with a serum-free medium containing compound 4 (1 μm for 30 minutes), finally the cells were transfected with flagellin (100 ng/ml) by S. typhimurium for 2 hours. The supernatant was tested by ELISA. […] The effect of the same compounds was examined on the non-NLR AIM2 inflammasome by transfecting BMDM with the dsDNS analogue Poly (dA:dT).
# The selectivity of compounds 6c and 10 of Formula (III) as inhibitors of NLRP3 was then evaluated with respect to NLRC4 inflammasome. For activation of NLRC4 inflammasome, BMDM were treated with LPS (100 ng/ml) for 3 hours. Subsequently the culture medium was removed and replaced with a serum-free medium containing […] (1 μm for 30 minutes), finally the cells were transfected with flagellin (100 ng/ml) by S. typhimurium for 2 hours. The supernatant was tested by ELISA.
# T2 sequence (Q3UP24 whole entry): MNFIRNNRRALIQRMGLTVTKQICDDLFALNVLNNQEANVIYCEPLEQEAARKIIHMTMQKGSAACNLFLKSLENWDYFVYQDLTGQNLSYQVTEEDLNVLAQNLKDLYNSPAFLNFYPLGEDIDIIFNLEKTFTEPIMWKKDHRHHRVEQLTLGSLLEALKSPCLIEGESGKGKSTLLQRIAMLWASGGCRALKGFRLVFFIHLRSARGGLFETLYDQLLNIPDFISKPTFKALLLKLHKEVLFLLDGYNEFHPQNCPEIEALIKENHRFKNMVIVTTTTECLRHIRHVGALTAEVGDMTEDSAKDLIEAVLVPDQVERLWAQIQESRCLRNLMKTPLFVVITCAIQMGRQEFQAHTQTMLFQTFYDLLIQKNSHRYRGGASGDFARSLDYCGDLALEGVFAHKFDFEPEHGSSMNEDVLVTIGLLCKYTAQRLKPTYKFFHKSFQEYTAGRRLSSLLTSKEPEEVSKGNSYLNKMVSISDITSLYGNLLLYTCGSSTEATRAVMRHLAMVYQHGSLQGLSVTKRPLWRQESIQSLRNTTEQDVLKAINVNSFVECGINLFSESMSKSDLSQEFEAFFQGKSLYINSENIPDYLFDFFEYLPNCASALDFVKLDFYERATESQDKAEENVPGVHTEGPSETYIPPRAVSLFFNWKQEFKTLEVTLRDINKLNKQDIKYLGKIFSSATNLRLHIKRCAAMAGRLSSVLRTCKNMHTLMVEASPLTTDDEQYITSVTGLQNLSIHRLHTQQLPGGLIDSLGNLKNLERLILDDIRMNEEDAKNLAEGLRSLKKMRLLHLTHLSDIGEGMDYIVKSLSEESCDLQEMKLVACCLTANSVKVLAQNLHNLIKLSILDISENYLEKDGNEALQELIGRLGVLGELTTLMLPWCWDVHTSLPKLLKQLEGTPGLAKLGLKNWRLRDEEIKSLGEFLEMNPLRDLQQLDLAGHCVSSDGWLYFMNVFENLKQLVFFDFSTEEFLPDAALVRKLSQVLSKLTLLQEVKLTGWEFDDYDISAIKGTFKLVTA
row,Effect on activation of NLRC4 inflammasome triggered by flagellin S. typhimurium,Compound
1,no effect,"CC(C)[C@H](NS(=O)(=O)c1ccc([N+](=O)[O-])cc1)C(=O)Nc1c2c(cc3c1CCC3)CCC2 [Compound 6c of Formula (III), (S)—N-(1,2,3,5,6,7-hexahydro-s-indacen-4-yl)-3-methyl-2-((4-nitrophenyl)sulfonamido)butanamide]"
2,no effect,"Nc1ccc(S(=O)(=O)N[C@@H](Cc2ccc(O)cc2)C(=O)Nc2c3c(cc4c2CCC4)CCC3)cc1 [Compound 10 of Formula (III), (S)-2-((4-aminophenyl)sulfonamido)-N-(1,2,3,5,6,7-hexahydro-s-indacen-4-yl)-3-(4-hydroxyphenyl)propanamide]"

# — patent publication US20250289810A1, “Compounds As NLRP3 Inflammasome Inhibitors And Their Use As Medicaments” (MAM-AGE S.R.L., priority 2022, published 2025)
